Values of other authors as cited in patent US20230218796A1, “Tissue adhesive for use in a treatment method in which an ophthalmological implant is implanted in a human or animal patient, and ophthalmological implantation system” (priority 2020, published 2023).

Columns and labels:
[1] = tested on: epithelial cell layer of the cornea; details: free thapsigargin released into the aqueous humor in the anterior chamber
[2] = tested on: cell growth in the capsular bag

With `C/C=C(/C)C(=O)O[C@H]1C(C)=C2[C@H]([C@@H]1OC(=O)CCCCCCC)[C@@](C)(OC(C)=O)C[C@H](OC(=O)CCC)[C@@]1(O)[C@H]2OC(=O)[C@@]1(C)O` [thapsigargin] as the compound, how does the “damage to the cornea on free release into the aqueous humor in the anterior chamber” value [1] read?
The value was “can damage the epithelial cell layer of the cornea”.

And the “higher concentration that induces cell death” value ([2]; higher concentrations)?
Its value is 10 to 100 µM.

And the “low concentration that greatly reduces cell growth in the capsular bag” value ([2]; low concentrations)?
Its value is 100 nM.
